Experimental data taken from patent US9359298B2, “Cajanine structure analogous compound, preparation method and use” (INSTITUTE OF MEDICINAL BIOTECHNOLOGY, CHINESE ACADEMY OF …, priority 2011, dated 2016).
≈ marks a conversion by molar mass, not a printed value. Where two headings read alike, the source gives them in different places.

Key:
Assay type in all cases: cell-based
[1] = test system: Influenza A virus (hanfang359/95); test: Determination of anti-influenza virus activity (CPE in MDCK cells); details: for IC50: Influenza A virus, MDCK, 36 h; for anti-influenza virus activities compared with the lead compound cajanine: statement in words
Coxsackie virus B6 = test: Coxsackie virus activity assay (CPE in Vero cells); details: Vero
HCV = test: Anti-hepatitis C virus (HCV) activity assay (HCV RNA in Huh7.5 cells); details: for EC50: Hepatitis C virus, Huh7.5, 72 h, read-out: HCV EC50; for anti-HCV viral activity: statement in words
Method: Inoculate Huh7.5 cells into 96-well plates to a density of 3×10^4 cells/cm^2, culture for 24h, infect the cells with 45 IU/cell HCV supernatant, meanwhile, add drug solutions or solvent control for treatment.

HIV-1 III B virus = test: Anti-HIV activity assay (P24 antigen in MT-4 cells); details: for IC50: Human immunodeficiency virus 1, MT4, 96 h, read-out: HIV IC50; for anti-HIV viral activity: statement in words
PC12 cells [2] = test: Neuroprotective activity assay, serum-deprived injury to PC12 cells (MTT); details: for viability at 10 µM: Rattus norvegicus, PC-12, 48 h, read-out: serum-deprived (surviving PC12 cells, MTT 570 nm); for protective effect on serum-deprived injury to PC12 cells: statement in words
Outline: (§1)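 Survival measured as MTT absorbance at 570 nm after 4 h dye uptake. Compounds (10 μM) were co-applied for 48 h to PC12 cells deprived of serum or exposed to 4 μM rotenone, following 24 h seeding on poly-lysine.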

PC12 cells [3] = test: Neuroprotective activity assay, rotenone injury to PC12 cells (MTT); details: for viability at 10 µM: Rattus norvegicus, PC-12, 48 h, read-out: rotenone (surviving PC12 cells, MTT 570 nm); for protective effect on rotenone injury to PC12 cells: statement in words
Outline: as §1

[4] = read-out: COX-B6 IC50, Vero cells, about 100TCID50, CPE, Reed-Muench
[5] = Huh7.5 cells, 72 h, HCV RNA by RT-PCR, Reed-Muench
[6] = MT-4 cells, HIV-1 III B 100TCID50, 96 h, P24 antigen
[7] = 10 μM test compound, 48 h, Control 100.0 ± 9.2, Model 69.3 ± 4.1
[8] = 10 μM test compound, 4 μM rotenone, 48 h, Control 100.0 ± 8.9, Model 73.2 ± 7.8

| SMILES | IC50 [1] | anti-influenza virus activities compared with the lead compound cajanine [1] | IC50 (Coxsackie virus B6; read-out: COX-B6 IC50) | EC50 (HCV) | IC50 (HIV-1 III B virus) | viability at 10 µM (PC12 cells [2]) | viability at 10 µM (PC12 cells [3]) | IC50 (Coxsackie virus B6; [4]) | EC50 (HCV; [5]) | IC50 (HIV-1 III B virus; [6]) | viability at 10 µM (PC12 cells [2]; [7]) | viability at 10 µM (PC12 cells [3]; [8]) | anti-HCV viral activity (HCV) | anti-HIV viral activity (HIV-1 III B virus) | protective effect on serum-deprived injury to PC12 cells (PC12 cells [2]) | protective effect on rotenone injury to PC12 cells (PC12 cells [3]) |
| --- | --- | --- | --- | --- | --- | --- | --- | --- | --- | --- | --- | --- | --- | --- | --- | --- |
| COc1cc(/C=C/c2ccc(F)cc2)cc(O)c1CC=C(C)C [Compound 10a, 2-isopentenyl-3-methoxy-5-[(E)-(4′-fluorostyryl)]phenol] | > 0.69 µg/mL | significantly stronger than the lead compound cajanine | 6.32 µg/mL (≈ 20.2 µM) | 1.6 µg/mL (≈ 5.12 µM) | 2.02 µg/mL (≈ 6.47 µM) | 78.2 ± 4.1% | 79.8 ± 5.6% | – | – | – | – | – | – | – | – | – |
| COc1cc(/C=C/c2cccc(O)n2)c(C(=O)O)c(O)c1CC=C(C)C [1c′, 2-hydroxy-3-isopentenyl-4-methoxy-6-[(E)-2-(6-hydroxypyrid-2-yl)ethenyl]benzoic acid] | 1.34 µg/mL (≈ 3.77 µM) | – | – | – | – | – | – | 2.56 µg/mL (≈ 7.2 µM) | 1.3 µg/mL (≈ 3.66 µM) | 1.61 µg/mL (≈ 4.53 µM) | 85.9 ± 4.7% | 85.6 ± 3.8% | – | – | – | – |
| COc1cc(/C=C/c2cc(OC)c(OC)c(OC)c2)c(C(=O)O)c(O)c1CC=C(C)C [Compound 1u, 2-hydroxy-3-isopentenyl-4-methoxy-6-[(E)-(3,4,5-trimethoxystyryl)]benzoic acid] | 0.21 µg/mL (≈ 0.49 µM) | significantly stronger than the lead compound cajanine | – | – | – | – | – | 0.14 µg/mL (≈ 0.327 µM) | 0.84 µg/mL (≈ 1.96 µM) | 0.16 µg/mL (≈ 0.373 µM) | 89.3 ± 2.3% | 90 ± 3.2% | stronger anti-HIV, HCV viral activities | stronger anti-HIV, HCV viral activities | the strongest activities | the strongest activities |
| COc1cc(/C=C/c2ccccc2)c(C(=O)O)c(O)c1C/C=C(\C)CCC=C(C)C [Compound 1o] | > 2.47 µg/mL | – | – | – | – | – | – | 1.36 µg/mL (≈ 3.35 µM) | 1.47 µg/mL (≈ 3.62 µM) | 1.76 µg/mL (≈ 4.33 µM) | 28.1 ± 11.9% | 61 ± 2.8% | – | – | – | – |
| COc1ccc(/C=C/c2cc(OC)c(CC=C(C)C)c(O)c2C(=O)O)cc1 [Compound 1c] | > 2.06 µg/mL | – | – | – | – | – | – | 1.6 µg/mL (≈ 4.34 µM) | 2.69 µg/mL (≈ 7.3 µM) | 1.64 µg/mL (≈ 4.45 µM) | 16.1 ± 0.7% | 77.2 ± 0.6% | stronger anti-HIV, HCV viral activities | stronger anti-HIV, HCV viral activities | – | – |
| COc1cc(/C=C/c2ccc(OC)c(O)c2)cc(OC)c1 [Compound 21d, 1,3-dimethoxy-5-[(E)-3-hydroxy-4-methoxy-styryl]benzene] | 5.42 µg/mL (≈ 18.9 µM) | – | 7.98 µg/mL (≈ 27.9 µM) | – | – | – | – | – | 3.37 µg/mL (≈ 11.8 µM) | 0.63 µg/mL (≈ 2.2 µM) | 88.7 ± 6.3% | 89.8 ± 2.8% | – | – | the strongest activities | the strongest activities |
| COc1cc(/C=C/c2ccccc2)c(C(=O)NC(N)=O)c(O)c1CC=C(C)C [Compound 23a, N-aminoformyl-2-hydroxy-3-isopentenyl-4-methoxy-6-[(E)-styryl]benzamide] | 0.09 µg/mL (≈ 0.237 µM) | significantly stronger than the lead compound cajanine | – | – | – | – | – | 0.32 µg/mL (≈ 0.841 µM) | 0.66 µg/mL (≈ 1.73 µM) | 0.74 µg/mL (≈ 1.95 µM) | 87.9 ± 5.8% | 85.6 ± 8.7% | stronger anti-HIV, HCV viral activities | stronger anti-HIV, HCV viral activities | – | – |
| COc1cc(/C=C/c2ccccn2)c(C(=O)O)c(O)c1CC=C(C)C [Compound 1t, 2-hydroxy-3-isopentenyl-4-methoxy-6-[(E)-2-(pyrid-2-yl)ethenyl]benzoic acid] | 0.34 µg/mL (≈ 1 µM) | significantly stronger than the lead compound cajanine | – | – | – | – | – | 0.61 µg/mL (≈ 1.8 µM) | 1.58 µg/mL (≈ 4.66 µM) | 1.07 µg/mL (≈ 3.15 µM) | 85.1 ± 2.1% | 84.6 ± 1.2% | – | – | – | – |
| COc1cc(/C=C/Cc2ccccc2)cc(O)c1CC=C(C)C [Compound 10k, 2-isopentenyl-3′-methoxy-5-[(E)-3′-phenylpropen-1′-yl]phenol] | 0.89 µg/mL (≈ 2.89 µM) | significantly stronger than the lead compound cajanine | – | – | – | – | – | > 2.06 µg/mL | 0.99 µg/mL (≈ 3.21 µM) | 1.06 µg/mL (≈ 3.44 µM) | 85.6 ± 3.2% | 84.6 ± 2.4% | – | – | the strongest activities | the strongest activities |
| COc1cc(/C=C/C2CCCCC2)c(C(=O)O)c(O)c1CC=C(C)C [Compound 1p, 2-hydroxy-3-isopentenyl-4-methoxy-6-[(E)-2-cyclohexyl-vinyl]benzoic acid] | 8.62 µg/mL (≈ 25 µM) | – | – | 8.62 µg/mL (≈ 25 µM) | – | – | – | > 2.06 µg/mL | – | 1.06 µg/mL (≈ 3.08 µM) | 81.2 ± 3.2% | 82 ± 2.3% | – | – | the strongest activities | the strongest activities |
| COc1cc(/C=C/CCc2ccccc2)c(C(=O)O)c(O)c1CC=C(C)C [Compound 1l, 2-hydroxy-3-isopentenyl-4-methoxy-6-[(E)-4′-phenylbuten-1′-yl]benzoic acid] | 0.36 µg/mL (≈ 0.982 µM) | significantly stronger than the lead compound cajanine | – | – | – | – | – | > 2.06 µg/mL | 0.65 µg/mL (≈ 1.77 µM) | 1.64 µg/mL (≈ 4.48 µM) | 27.2 ± 7.2% | 58.4 ± 1.4% | stronger anti-HIV, HCV viral activities | stronger anti-HIV, HCV viral activities | – | – |
| COC(=O)c1c(/C=C/c2ccccc2)cc(OC)c(C/C=C(\C)CCC=C(C)C)c1O [Compound 8o, methyl 2-hydroxy-3-(3′,7′-dimethyloctadien-2′,6′-yl)-4-methoxy-6-[(E)-styryl]benzoate] | 0.82 µg/mL (≈ 1.95 µM) | significantly stronger than the lead compound cajanine | – | – | – | – | – | 2.36 µg/mL (≈ 5.61 µM) | 0.92 µg/mL (≈ 2.19 µM) | 2.96 µg/mL (≈ 7.04 µM) | 69.3 ± 5.6% | 70.6 ± 6.3% | – | – | – | – |
| COc1cc(/C=C/c2cccc(C)c2)c(C(=O)O)c(O)c1CC=C(C)C [Compound 1f, 2-hydroxy-3-isopentenyl-4-methoxy-6-[(E)-3-methylstyryl]benzoic acid] | 0.48 µg/mL (≈ 1.36 µM) | significantly stronger than the lead compound cajanine | – | – | – | – | – | 4.65 µg/mL (≈ 13.2 µM) | 0.53 µg/mL (≈ 1.5 µM) | 1.45 µg/mL (≈ 4.11 µM) | 31.7 ± 10.3% | 58 ± 4.5% | stronger anti-HIV, HCV viral activities | stronger anti-HIV, HCV viral activities | – | – |
| COC(=O)c1c(O)cc(OC)c(CC=C(C)C)c1/C=C/c1ccccc1 [Compound 18, methyl 2-hydroxy-4-methoxy-5-isopentenyl-6-[(E)-styryl]benzoate] | > 18.5 µg/mL | – | – | – | – | – | – | > 6.17 µg/mL | 8.51 µg/mL (≈ 24.1 µM) | 0.34 µg/mL (≈ 0.965 µM) | 77.8 ± 6.3% | 74.9 ± 2.9% | – | – | – | – |
| COc1cc(/C=C/c2ccccc2)cc(O)c1C/C=C(\C)CCC=C(C)C [Compound 10o] | > 2.06 µg/mL | – | – | – | – | – | – | 0.96 µg/mL (≈ 2.65 µM) | 1.32 µg/mL (≈ 3.64 µM) | 0.96 µg/mL (≈ 2.65 µM) | 86.3 ± 3.8% | 87.6 ± 5.4% | stronger anti-HIV, HCV viral activities | stronger anti-HIV, HCV viral activities | the strongest activities | the strongest activities |
| COc1cc(/C=C(\C)c2ccccc2)c(C(=O)O)c(O)c1CC=C(C)C [Compound 1i, 2-hydroxy-3-isopentenyl-4-methoxy-6-[(E)-2-phenylpropen-1-yl]benzoic acid] | > 0.82 µg/mL | – | – | – | – | – | – | 6.25 µg/mL (≈ 17.7 µM) | 0.59 µg/mL (≈ 1.67 µM) | 1.31 µg/mL (≈ 3.72 µM) | 28.3 ± 7.6% | 55.1 ± 4.8% | stronger anti-HIV, HCV viral activities | stronger anti-HIV, HCV viral activities | – | – |
| COc1cc(/C=C(\C(=O)O)c2ccccc2)c(C(=O)O)c(O)c1CC=C(C)C [Compound 1s] | 0.54 µg/mL (≈ 1.41 µM) | – | – | – | – | – | – | 0.85 µg/mL (≈ 2.22 µM) | 0.84 µg/mL (≈ 2.2 µM) | 0.75 µg/mL (≈ 1.96 µM) | 89.8 ± 3.2% | 88.7 ± 6.1% | stronger anti-HIV, HCV viral activities | stronger anti-HIV, HCV viral activities | – | – |
| COc1cc(/C=C/c2ccccc2)c(C(=O)O)c(OC)c1CC=C(C)C [Compound 15, 2-methoxy-3-isopentenyl-4-methoxy-6-[(E)-styryl]benzoic acid] | > 0.23 µg/mL | – | – | – | – | – | – | > 2.06 µg/mL | 0.83 µg/mL (≈ 2.36 µM) | 1.43 µg/mL (≈ 4.06 µM) | 74.1 ± 2.5% | 83.1 ± 5.7% | – | – | – | – |
| COc1cccc(/C=C/c2cc(O)c(CC=C(C)C)c(OC)c2)n1 [10f′] | 0.23 µg/mL (≈ 0.707 µM) | – | – | – | – | – | – | 2.31 µg/mL (≈ 7.1 µM) | 0.61 µg/mL (≈ 1.87 µM) | 1.04 µg/mL (≈ 3.2 µM) | 80.5 ± 3.2% | 79.1 ± 5.6% | – | – | – | – |
